# Data as given in paper PMC11157767 (Molecular Cancer, 2024).
# Test system: TFG-MET allograft tumors
# Assay: RNA-sequencing, differential expression and GSEA of TFG-MET allograft tumors
# Format: in vivo, mouse
# Conditions: CAP v Veh
# Procedure: Error bars display standard error of mean, statistical significance was determined using t-test analysis. (****;p<0.0001, ***;p<0.001, **;p<0.01, *;p<0.05). […] Each dot represents an individual replicate. Error bars display standard error of the mean.
# Each dot represents one gene.
compound,measurement,setting,value
CNC(=O)c1ccc(-c2cnc3ncc(Cc4ccc5ncccc5c4)n3n2)cc1F [Capmatinib],ES,GOMF_3_5_DNA_HELICASE_ACTIVITY,-0.6834
same,NES,"GOMF_3_5_DNA_HELICASE_ACTIVITY, padj 0.00671103",-1.906
same,ES,GOMF_ACTIVATING_TRANSCRIPTION_FACTOR_BINDING,-0.4071
same,NES,"GOMF_ACTIVATING_TRANSCRIPTION_FACTOR_BINDING, padj 0.0419799",-1.5828
same,ES,GOMF_ALPHA_ACTININ_BINDING,-0.5133
same,NES,"GOMF_ALPHA_ACTININ_BINDING, padj 0.0520078",-1.603
same,ES,GOMF_AMYLOID_BETA_BINDING,0.3131
same,NES,"GOMF_AMYLOID_BETA_BINDING, padj 0.0419799",1.527
same,ES,GOMF_ANTIOXIDANT_ACTIVITY,0.3898
same,NES,"GOMF_ANTIOXIDANT_ACTIVITY, padj 0.0072907",1.809
same,ES,GOMF_ATPASE_COUPLED_ION_TRANSMEMBRANE_TRANSPORTER_ACTIVITY,0.474
same,NES,"GOMF_ATPASE_COUPLED_ION_TRANSMEMBRANE_TRANSPORTER_ACTIVITY, padj 0.00463",2.003
same,ES,GOMF_BETA_2_MICROGLOBULIN_BINDING,0.5632
same,NES,"GOMF_BETA_2_MICROGLOBULIN_BINDING, padj 0.0448774",1.801
same,ES,GOMF_CALCIUM_DEPENDENT_PROTEIN_BINDING,0.337
same,NES,"GOMF_CALCIUM_DEPENDENT_PROTEIN_BINDING, padj 0.0607303",1.56
same,ES,GOMF_CARBOHYDRATE_BINDING,0.2512
same,NES,"GOMF_CARBOHYDRATE_BINDING, padj 0.0202682",1.428
same,ES,GOMF_CARBOXYLIC_ESTER_HYDROLASE_ACTIVITY,0.3196
same,NES,"GOMF_CARBOXYLIC_ESTER_HYDROLASE_ACTIVITY, padj 0.00853155",1.6126
same,ES,GOMF_CATALYTIC_ACTIVITY_ACTING_ON_A_TRNA,-0.5808
same,NES,"GOMF_CATALYTIC_ACTIVITY_ACTING_ON_A_TRNA, padj 7.15005e-11",-2.431
same,ES,GOMF_CATALYTIC_ACTIVITY_ACTING_ON_DNA,-0.5359
same,NES,"GOMF_CATALYTIC_ACTIVITY_ACTING_ON_DNA, padj 5.51748e-13",-2.374
same,ES,GOMF_CATION_CATION_ANTIPORTER_ACTIVITY,0.4863
same,NES,"GOMF_CATION_CATION_ANTIPORTER_ACTIVITY, padj 0.0546567",1.7655
same,ES,GOMF_CATION_TRANSMEMBRANE_TRANSPORTER_ACTIVITY,0.1933
same,NES,"GOMF_CATION_TRANSMEMBRANE_TRANSPORTER_ACTIVITY, padj 0.0600708",1.207
same,ES,GOMF_COA_HYDROLASE_ACTIVITY,0.52
same,NES,"GOMF_COA_HYDROLASE_ACTIVITY, padj 0.0696276",1.759
same,ES,GOMF_CORE_PROMOTER_SEQUENCE_SPECIFIC_DNA_BINDING,-0.4562
same,NES,"GOMF_CORE_PROMOTER_SEQUENCE_SPECIFIC_DNA_BINDING, padj 0.072132",-1.575
same,ES,GOMF_CYTOKINE_BINDING,0.2766
same,NES,"GOMF_CYTOKINE_BINDING, padj 0.0484841",1.402
same,ES,GOMF_CYTOKINE_RECEPTOR_ACTIVITY,0.3569
same,NES,"GOMF_CYTOKINE_RECEPTOR_ACTIVITY, padj 0.00978552",1.74
same,ES,GOMF_DELAYED_RECTIFIER_POTASSIUM_CHANNEL_ACTIVITY,0.4424
same,NES,"GOMF_DELAYED_RECTIFIER_POTASSIUM_CHANNEL_ACTIVITY, padj 0.0600708",1.691
same,ES,GOMF_DEMETHYLASE_ACTIVITY,-0.5386
same,NES,"GOMF_DEMETHYLASE_ACTIVITY, padj 0.0072907",-1.838
same,ES,GOMF_DNA_BINDING_TRANSCRIPTION_ACTIVATOR_ACTIVITY,-0.3206
same,NES,"GOMF_DNA_BINDING_TRANSCRIPTION_ACTIVATOR_ACTIVITY, padj 0.00368803",-1.494
same,ES,GOMF_DNA_BINDING_TRANSCRIPTION_REPRESSOR_ACTIVITY,-0.3134
same,NES,"GOMF_DNA_BINDING_TRANSCRIPTION_REPRESSOR_ACTIVITY, padj 0.0381242",-1.423
same,ES,GOMF_DNA_HELICASE_ACTIVITY,-0.6746
same,NES,"GOMF_DNA_HELICASE_ACTIVITY, padj 6.80206e-12",-2.633
same,ES,GOMF_DNA_POLYMERASE_ACTIVITY,-0.499
same,NES,"GOMF_DNA_POLYMERASE_ACTIVITY, padj 0.057276",-1.624
same,ES,GOMF_DNA_POLYMERASE_BINDING,-0.6079
same,NES,"GOMF_DNA_POLYMERASE_BINDING, padj 0.0319688",-1.763
same,ES,GOMF_DOUBLE_STRANDED_RNA_BINDING,-0.4239
same,NES,"GOMF_DOUBLE_STRANDED_RNA_BINDING, padj 0.0120781",-1.66
same,ES,GOMF_ENDONUCLEASE_ACTIVITY,-0.4125
same,NES,"GOMF_ENDONUCLEASE_ACTIVITY, padj 0.00509455",-1.716
same,ES,GOMF_ENDONUCLEASE_ACTIVITY_ACTIVE_WITH_EITHER_RIBO_OR_DEOXYRIBONUCLEIC_ACIDS_AND_PRODUCING_5_PHOSPHOMONOESTERS,-0.5195
same,NES,"GOMF_ENDONUCLEASE_ACTIVITY_ACTIVE_WITH_EITHER_RIBO_OR_DEOXYRIBONUCLEIC_ACIDS_AND_PRODUCING_5_PHOSPHOMONOESTERS, padj 0.00950889",-1.794
same,ES,GOMF_ENDOPEPTIDASE_REGULATOR_ACTIVITY,0.2991
same,NES,"GOMF_ENDOPEPTIDASE_REGULATOR_ACTIVITY, padj 0.0132396",1.521
same,ES,GOMF_ENDORIBONUCLEASE_ACTIVITY,-0.4748
same,NES,"GOMF_ENDORIBONUCLEASE_ACTIVITY, padj 0.00565255",-1.786
same,ES,GOMF_ENDORIBONUCLEASE_ACTIVITY_PRODUCING_5_PHOSPHOMONOESTERS,-0.5711
same,NES,"GOMF_ENDORIBONUCLEASE_ACTIVITY_PRODUCING_5_PHOSPHOMONOESTERS, padj 0.0162496",-1.81
same,ES,GOMF_FATTY_ACID_BINDING,0.4525
same,NES,"GOMF_FATTY_ACID_BINDING, padj 0.0492693",1.741
same,NES,"GOMF_FOUR_WAY_JUNCTION_DNA_BINDING, padj 0.0177962",-1.783
same,NES,"GOMF_GLUTATHIONE_PEROXIDASE_ACTIVITY, padj 0.00790825",2.092
same,ES,GOMF_GLYCOLIPID_BINDING,0.506
same,NES,"GOMF_GLYCOLIPID_BINDING, padj 0.0202682",1.835
same,ES,GOMF_GUANYL_NUCLEOTIDE_BINDING,-0.2896
same,NES,"GOMF_GUANYL_NUCLEOTIDE_BINDING, padj 0.0419799",-1.351
same,ES,GOMF_HEAT_SHOCK_PROTEIN_BINDING,-0.3614
same,NES,"GOMF_HEAT_SHOCK_PROTEIN_BINDING, padj 0.0624118",-1.511
same,ES,GOMF_HEME_COPPER_TERMINAL_OXIDASE_ACTIVITY,0.566
same,NES,"GOMF_HEME_COPPER_TERMINAL_OXIDASE_ACTIVITY, padj 0.00343436",2.052
same,ES,GOMF_HISTONE_DEACETYLASE_BINDING,-0.365
same,NES,"GOMF_HISTONE_DEACETYLASE_BINDING, padj 0.0452435",-1.507
same,ES,GOMF_HYDROLASE_ACTIVITY_ACTING_ON_ACID_ANHYDRIDES,-0.3454
same,ES,GOMF_HYDROLASE_ACTIVITY_ACTING_ON_CARBON_NITROGEN_BUT_NOT_PEPTIDE_BONDS_IN_CYCLIC_AMIDINES,-0.5898
same,NES,"GOMF_HYDROLASE_ACTIVITY_ACTING_ON_CARBON_NITROGEN_BUT_NOT_PEPTIDE_BONDS_IN_CYCLIC_AMIDINES, padj 0.00629559",-1.842
same,ES,GOMF_ION_TRANSMEMBRANE_TRANSPORTER_ACTIVITY,0.1805
same,NES,"GOMF_ION_TRANSMEMBRANE_TRANSPORTER_ACTIVITY, padj 0.0667134",1.183
same,ES,GOMF_ISOMERASE_ACTIVITY,-0.3436
same,NES,"GOMF_ISOMERASE_ACTIVITY, padj 0.0410059",-1.472
same,ES,GOMF_KINASE_BINDING,-0.2712
same,NES,"GOMF_KINASE_BINDING, padj 0.019253",-1.314
same,ES,GOMF_KINASE_INHIBITOR_ACTIVITY,-0.4003
same,ES,GOMF_KINASE_REGULATOR_ACTIVITY,-0.3132
same,NES,"GOMF_KINASE_REGULATOR_ACTIVITY, padj 0.0543588",-1.396
same,ES,GOMF_LIGASE_ACTIVITY_FORMING_CARBON_NITROGEN_BONDS,-0.4994
same,NES,"GOMF_LIGASE_ACTIVITY_FORMING_CARBON_NITROGEN_BONDS, padj 0.0116225",-1.777
same,ES,GOMF_LYSINE_ACETYLATED_HISTONE_BINDING,-0.5519
same,NES,"GOMF_LYSINE_ACETYLATED_HISTONE_BINDING, padj 0.0564834",-1.63
same,ES,GOMF_LYSOPHOSPHOLIPASE_ACTIVITY,0.4699
same,NES,"GOMF_LYSOPHOSPHOLIPASE_ACTIVITY, padj 0.0722653",1.706
same,ES,GOMF_MAGNESIUM_ION_BINDING,-0.3426
same,NES,"GOMF_MAGNESIUM_ION_BINDING, padj 0.0134631",-1.518
same,NES,"GOMF_MAP_KINASE_KINASE_KINASE_ACTIVITY, padj 0.0759934",-1.58
same,ES,GOMF_METALLOENDOPEPTIDASE_ACTIVITY,-0.4444
same,NES,"GOMF_METALLOENDOPEPTIDASE_ACTIVITY, padj 0.00334688",-1.785
same,ES,GOMF_METALLOPEPTIDASE_ACTIVITY,-0.3671
same,NES,"GOMF_METALLOPEPTIDASE_ACTIVITY, padj 0.0120781",-1.581
same,ES,GOMF_METHYL_CPG_BINDING,-0.6439
